Assay results: patent US20230203081A1, “LINCOSAMIDE ANTIBIOTICS AND USES THEREOF” (President and Fellows of Harvard College, priority 2020, published 2023)
≈ marks a conversion by molar mass, not a printed value.

Columns and labels:
Assay in all cases: microbe, parasite or virus in culture
Format in all cases: cell-based
[1] = test system: S. aureus BAA 977 iErmA; details: Staphylococcus aureus
Method in brief: (§1)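 Per CLSI, MICs by broth microdilution or agar dilution; strains other than streptococci and anaerobes were sub-cultured overnight at 35° C on blood agar, with a final broth inoculum of 5×10^5 CFU/mL.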

[2] = test system: S. aureus MP-549 msrA; details: Staphylococcus aureus, MP549MSRA
Method in brief: as §1

[3] = test system: E. coli armA; details: Escherichia coli
Method in brief: as §1

[4] = test system: broad panel of different clinical isolates
Method in brief: as §1

CSC1O[C@H]([C@H](NC(=O)[C@H]2NC[C@@H]3C[C@H](CC(C)C)CCO[C@H]32)[C@H](C)Cl)C(O)[C@@H](O)[C@H]1O (stereo partly shown) [FSA-513018b]
MIC ([1]; BAA977): ≤ 0.06 µg/mL
MIC ([1]; BAA-977 / MRSA): 0.06 µg/mL (≈ 0.121 µM)
MIC ([1]; BAA-977 / MRSA, 24 h): 2 µg/mL (≈ 4.04 µM)
MIC ([2]; S. aureus MP-549 msrA): ≤ 0.06 µg/mL
MIC ([2]; S. aureus HAV#032, MP-549, MSR(A)): 0.06 µg/mL (≈ 0.121 µM)
MIC ([3]; E. coli HAV#056, Clinical, armA): 8 µg/mL (≈ 16.2 µM)
MIC ([3]; E. coli armA): 8 µg/mL (≈ 16.2 µM)
MIC ([4]; Acinetobacter baumannii, A. baumannii HAV#651, Clinical): 4 µg/mL (≈ 8.08 µM)
MIC ([4]; Acinetobacter baumannii, A. baumannii HAV#652 Clinical): 8 µg/mL (≈ 16.2 µM)
MIC ([4]; Acinetobacter baumannii, A. baumannii HAV#653, Clinical): 4 µg/mL (≈ 8.08 µM)
MIC ([4]; Acinetobacter baumannii, A. baumannii HAV#654, Clinical): 8 µg/mL (≈ 16.2 µM)
MIC ([4]; Acinetobacter baumannii, A. baumannii HAV#655, Clinical): 8 µg/mL (≈ 16.2 µM)
MIC ([4]; Acinetobacter baumannii, A. baumannii HAV#656, Clinical): 16 µg/mL (≈ 32.3 µM)
MIC ([4]; Acinetobacter baumannii, A. baumannii HAV#657, Clinical): 4 µg/mL (≈ 8.08 µM)
MIC ([4]; Acinetobacter baumannii, A. baumannii HAV#658, Clinical): 4 µg/mL (≈ 8.08 µM)
MIC ([4]; Acinetobacter baumannii, A. baumannii HAV#659, Clinical): 8 µg/mL (≈ 16.2 µM)
MIC ([4]; Acinetobacter baumannii, A. baumannii HAV#660, Clinical): 16 µg/mL (≈ 32.3 µM)
MIC ([4]; Acinetobacter baumannii, A. baumannii HAV#661, Clinical): 8 µg/mL (≈ 16.2 µM)
MIC ([4]; Acinetobacter baumannii, A. baumannii HAV#662, Clinical): 8 µg/mL (≈ 16.2 µM)
MIC ([4]; Acinetobacter baumannii, A. baumannii HAV#663, Clinical): 4 µg/mL (≈ 8.08 µM)
MIC ([4]; Acinetobacter baumannii, A. baumannii HAV#664, Carbapenem R): 16 µg/mL (≈ 32.3 µM)
MIC ([4]; Enterococcus faecalis, E. faecalis HAV#602, Clincal): ≤ 0.06 µg/mL
MIC ([4]; Enterococcus faecalis, E. faecalis HAV#607, Clinical): 2 µg/mL (≈ 4.04 µM)
MIC ([4]; Enterococcus faecalis, E. faecalis HAV#609, Clinical): 2 µg/mL (≈ 4.04 µM)
MIC ([4]; Enterococcus faecalis, E. faecalis HAV#611, Line R & Vanco R): 0.125 µg/mL (≈ 0.252 µM)
MIC ([4]; Enterococcus faecalis, E. faecalis HAV#612, Line R): ≤ 0.06 µg/mL
MIC ([4]; Enterococcus faecalis, S. faecalis 5060, Line R & Vanco R): 0.125 µg/mL (≈ 0.252 µM)
MIC ([4]; Enterococcus faecalis, S. faecalis 5074, Line R): ≤ 0.06 µg/mL
MIC ([4]; Enterococcus faecium, E. faecium HAV#317, Clinical): 0.25 µg/mL (≈ 0.505 µM)
MIC ([4]; Enterococcus faecium, E. faecium HAV#324, Clinical): 1 µg/mL (≈ 2.02 µM)
MIC ([4]; Enterococcus faecium, E. faecium HAV#327, Clinical): 0.06 µg/mL (≈ 0.121 µM)
MIC ([4]; Enterococcus faecium, E. faecium HAV#328, Clinical): 1 µg/mL (≈ 2.02 µM)
MIC ([4]; Enterococcus faecium, E. faecium HAV#329, Clinical): 1 µg/mL (≈ 2.02 µM)
MIC ([4]; Enterococcus faecium, E. faecium HAV#604, Clinical): 0.06 µg/mL (≈ 0.121 µM)
MIC ([4]; Enterococcus faecium, VRE, E. faecium HAV#319, Line R & Vanco R): ≤ 0.06 µg/mL
MIC ([4]; Enterococcus faecium, VRE, E. faecium HAV#320, Clinical): 0.25 µg/mL (≈ 0.505 µM)
MIC ([4]; Enterococcus faecium, VRE, E. faecium HAV#326, Clinical): 0.25 µg/mL (≈ 0.505 µM)
MIC ([4]; Escherichia coli, E. coli HAV#501, Clinical): 8 µg/mL (≈ 16.2 µM)
MIC ([4]; Escherichia coli, E. coli HAV#503, Clinical): 8 µg/mL (≈ 16.2 µM)
MIC ([4]; Escherichia coli, E. coli HAV#511, Clinical): 4 µg/mL (≈ 8.08 µM)
MIC ([4]; Escherichia coli, E. coli HAV#512, Clinical): 8 µg/mL (≈ 16.2 µM)
MIC ([4]; Escherichia coli, E. coli HAV#513, Clinical): 16 µg/mL (≈ 32.3 µM)
MIC ([4]; Escherichia coli, E. coli HAV#514, Clinical): 8 µg/mL (≈ 16.2 µM)
MIC ([4]; Escherichia coli, E. coli HAV#516, ESBL-producing): 8 µg/mL (≈ 16.2 µM)
MIC ([4]; Haemophilus influenzae, ATCC9007, H. influenzae HAV#376, ATCC-9007): 0.5 µg/mL (≈ 1.01 µM)
MIC ([4]; K. pneumnoniae HAV#402, FQ-R): 16 µg/mL (≈ 32.3 µM)
MIC ([4]; Klebsiella pneumoniae, K. pneumoniae HAV#041, Clinical, KPC): 32 µg/mL (≈ 64.6 µM)
MIC ([4]; Klebsiella pneumoniae, K. pneumoniae HAV#402, FQ-R): 16 µg/mL (≈ 32.3 µM)
MIC ([4]; Klebsiella pneumoniae, K. pneumoniae HAV#404, Clinical): 32 µg/mL (≈ 64.6 µM)
MIC ([4]; Klebsiella pneumoniae, K. pneumoniae HAV#405, Clinical): 16 µg/mL (≈ 32.3 µM)
MIC ([4]; Klebsiella pneumoniae, K. pneumoniae HAV#406, Clinical): 64 µg/mL (≈ 129 µM)
MIC ([4]; Klebsiella pneumoniae, K. pneumoniae HAV#407, Clinical): 128 µg/mL (≈ 259 µM)
MIC ([4]; Klebsiella pneumoniae, K. pneumoniae HAV#408, Clinical): 128 µg/mL (≈ 259 µM)
MIC ([4]; Klebsiella pneumoniae, K. pneumoniae HAV#409, ESBL-producing): 16 µg/mL (≈ 32.3 µM)
MIC ([4]; Neisseria gonorrhoeae, N. gonorrhoeae HAV#701, Clinical): 0.125 µg/mL (≈ 0.252 µM)
